# Several values for one entry are separate records, joined by “and”; a condition that tells them apart may be missing. Equal entries are not always repeated. Where two headings read alike, the source gives them in different places.
# Legend:
# Ebola virus replicon = experiment: microbe, parasite or virus in culture; format: cell-based; conditions: for IC50: Zaire ebolavirus
# in vitro = conditions: Syrian hamster
# [1] = tested on: avian influenza virus A/GuangZhou/99 (H9N2); experiment: organism not typed; format: cell-based
# [2] = tested on: 2019-nCoV (2019BetaCoV/Wuhan/WIV04/2019 strain); experiment: microbe, parasite or virus in culture; format: cell-based
# [3] = Antiviral activity in combination with other antiviral drugs; conditions: combined with lopinavir, ritonavir, ribavirin, remdesivir, oseltamivir, tamiflu, lanimivir, peramivir, chloroquine
# COVID-19 [4] = experiment: Compassionate use in large-scale (132 cases) COVID-19 patients; format: in vivo, human; conditions: patients who took leflunomide within 18 days of admission
# MDCK cells = conditions: dog
# [5] = tested on: influenza virus A/WSN/33 (H1N1); set-up: species or system BALB/c female mice; conditions: mouse, in vivo
# COVID-19 [6] = experiment: Compassionate use in small-scale (10 cases) COVID-19 patients; format: in vivo, human
# [7] = Drug toxicity by CellTiter-Glo (CC50), 2019-nCoV host cells; conditions: African green monkey, Vero E6 cells
# [8] = Severe acute respiratory syndrome coronavirus 2, Vero C1008, 48 h
smiles,measurement,setting,value
"C/C(O)=C(\C#N)C(=O)Nc1ccc(C(F)(F)F)cc1 [Teriflunomide, teriflunomide]",SI,Ebola virus replicon,32.26
same,IC50,"Ebola virus replicon; BSR-T7/5, 24 h",3.41 µM
same,IC50,"Ebola virus replicon; BSR-T7/5, read-out: drug concentration at which inhibitory efficiency on virus replication reaches 50%",0.923 µg/mL
same,CC50,in vitro,110 µM
same,SI,[1],53.13
same,IC50,[1]; MDCK,3.36 µM
same,IC50,"[1]; unidentified influenza virus, H9N2, MDCK, read-out: drug concentration at which inhibitory efficiency on virus replication reaches 50%",0.9 µg/mL
same,SI,[2],141.75
same,IC50,[2]; [8],6 µM
same,IC50,"[2]; Severe acute respiratory syndrome coronavirus 2, Vero C1008, read-out: drug concentration at which inhibitory efficiency on virus replication reaches 50%",1.62 µg/mL
"Cc1oncc1C(=O)Nc1ccc(C(F)(F)F)cc1 [Leflunomide, leflunomide]",therapeutic effects in combination with other antiviral drugs,[3],better therapeutic effects
same,"time from taking leflunomide (LEF) to negative conversion (VC), median",COVID-19 [4],6.5 days
same,"time from admission (AD) to negative conversion (VC), median",COVID-19 [4]; control group median 25 days,16 days
same,SI,Ebola virus replicon,10.66
same,IC50,"Ebola virus replicon; BSR-T7/5, 24 h",15.3 µM
same,CC50,in vitro,163 µM
same,SI,[1],8.58
same,IC50,[1]; MDCK,8.12 µM
same,CC50,MDCK cells,69.6 µM
same,mice rescued from death,[5],50% and 100%
same,Time to negative conversion after treatment,"COVID-19 [6]; leflunomide experimental group, Number of Patients 1",4 days
same,Time to negative conversion after treatment,"COVID-19 [6]; leflunomide experimental group, Number of Patients 3",8 days
same,Time to negative conversion after treatment,"COVID-19 [6]; leflunomide experimental group, Number of Patients 4",5 days
same,CRP after treatment,"COVID-19 [6]; leflunomide experimental group, n = 5, range (5-5), normal 0-10, P value 0.109 vs before",5 mg/L
same,CRP before treatment,"COVID-19 [6]; leflunomide experimental group, n = 5, range (7.8-120.6), normal 0-10",37.4 mg/L
same,level of C-reactive protein,"COVID-19 [6]; small-scale (10 cases), after leflunomide treatment",significantly reduced
same,time to negative conversion (median),"COVID-19 [6]; small-scale (10 cases), control group median 11 days, P=0.046",5 days
same,SI,[2],21.19
same,IC50,[2]; [8],41.5 µM
same,CC50 at 72 h,[7],879 µM
